Data on eight compounds can be found in patent US20190038611A1, “Novel CYP34A-Specific Inhibitors and Methods of Using Same” (THE REGENTS OF THE UNIVERSITY OF CALIFORNIA, priority 2015, published 2019).

Where “and” joins values, the source holds several entries; their conditions need not be identical. Equal values may be shown once. Read-outs that look alike come from different tables or passages of the source.

The target of series [1] is T1, CYP3A4 (Homo sapiens, UniProt P08684). Briefly: Spectral binding titrations (equilibrium titration of CYP3A4, spectral dissociation constant). Set-up: 4-histidine tag (C); made in house; host or cells: E. coli. Here is the method: Left insets depict difference spectra between the ligand-free and inhibitor-bound forms. Right insets are plots of the absorbance change versus inhibitor concentration, based on which the Kd values were calculated.

Series [2] addresses T1, CYP3A4. Briefly: Inhibition of BFC O-debenzylation activity of CYP3A4 in a reconstituted system with rat cytochrome P450 reductase.
Protocol: (§1) Thermal denaturation experiments were conducted as previously described (Sevrioukova and Poulos, 2013 J. Med. Chem. 56: 3733-41) to compare ligand-dependent changes in CYP3A4 stability. The inhibitory potency of the investigated compounds on the 7-benzyloxy-4-(trifluoromethyl)coumarin (BFC) O-debenzylation activity of CYP3A4 was evaluated fluorometrically in a reconstituted system with rat cytochrome P450 reductase (CPR). The reaction was carried out at room temperature in 100 mM phosphate buffer, pH 7.4, containing catalase and superoxide dismutase (2 Units/ml each). A mixture of 1 μM CYP3A4 and 1 μM CPR was preincubated for 1 hour at room temperature and diluted by 20-fold with the assay buffer immediately before measurements. BFC (50 μM) and various concentrations of analogs were added to the protein mixture 2 minutes prior to the reaction initiation with 100 μM NADPH. Formation of 7-hydroxy-4-trifluoromethylcoumarin was followed in a Hitachi F100 fluorometer using λex=430 nm and λem=500 nm. IC50 values were derived from the [% activity] vs. [inhibitor] plots.
Series [3] addresses T1, CYP3A4. Briefly: Kinetics of ligand binding to CYP3A4 (stopped flow). Particulars: for kfast (rate constant for the fast phase of the binding reaction): saturating ligand concentrations, room temperature, 2 μM CYP3A4. Here is the method: Kinetics of ligand binding to CYP3A4 was monitored at room temperature in 50 mM phosphate, pH 7.4, in a SX.18MV stopped flow apparatus (Applied Photophysics,
UK) after mixing 2 μM CYP3A4 with various concentrations of ligands. […] Kinetic data were analyzed using the program IgorPro (WaveMetrics, Inc).

Series [4] has as its target T1, CYP3A4. Briefly: Thermal denaturation (ligand-dependent changes in CYP3A4 melting temperature). The series is classed as binding. Set-up: 4-histidine tag (C); made in house; host or cells: E. coli.
Protocol: as §1
In series [5] the target is T1, CYP3A4. Briefly: 442 nm peak in the absorbance spectrum of ligand-bound ferrous CYP3A4.
Series [6] concerns the target T1, CYP3A4.
Protocol: as §1
For series [7], the target named is T1, CYP3A4. The source holds these as a separate data set.
[8] abbreviates: 50 mM phosphate pH 7.4, 20% glycerol, 1 mM dithiothreitol, single site, read-out: Ks (spectral dissociation constant).
The mark [9] stands for this setting: read-out: IC50 (concentration required for half-maximal inactivation of recombinant CYP3A4), BFC 50 μM, 100 μM NADPH, room temperature, pH 7.4.

T1 sequence (P08684 with tags, fused parts or gaps): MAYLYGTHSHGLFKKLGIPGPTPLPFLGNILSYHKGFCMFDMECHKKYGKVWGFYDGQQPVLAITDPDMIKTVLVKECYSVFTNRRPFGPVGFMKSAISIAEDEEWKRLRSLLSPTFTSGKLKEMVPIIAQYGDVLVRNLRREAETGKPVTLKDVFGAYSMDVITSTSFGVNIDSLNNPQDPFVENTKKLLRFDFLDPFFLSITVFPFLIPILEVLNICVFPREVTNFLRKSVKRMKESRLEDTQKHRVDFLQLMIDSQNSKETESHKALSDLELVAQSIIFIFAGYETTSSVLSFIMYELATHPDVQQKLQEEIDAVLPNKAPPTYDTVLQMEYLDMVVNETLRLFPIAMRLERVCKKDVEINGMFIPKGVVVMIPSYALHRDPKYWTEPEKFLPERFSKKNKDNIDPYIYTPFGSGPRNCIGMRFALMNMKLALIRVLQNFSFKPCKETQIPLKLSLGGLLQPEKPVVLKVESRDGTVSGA

Take `CC(C)(C)OC(=O)N[C@H](CN[C@@H](Cc1ccccc1)C(=O)NCCc1cccnc1)Cc1ccccc1` [Compound 01ERS089, N-BOC-Trp-S-N-Ph-Cys-CONH-Et-Pyr]: the Kd at CYP3A4 [1] (calculated from plots of absorbance change versus inhibitor concentration (FIG. 37), read-out: Kd (binding affinity to CYP3A4)) is 0.13 µM. Also, on CYP3A4 [2], the IC50 was found to be 0.39 µM.
Turning to `CC(C)(C)OC(=O)NCCCCCC(=O)NCc1cccnc1` [Compound 4], on CYP3A4 [3], the “kfast (rate constant for the fast phase of the binding reaction)” value (“kfast” below) was 20 s⁻¹ and 20 ± 2 s⁻¹. Besides, the Kd at CYP3A4 [1] (setting [8]) worked out at 105 ± 10 µM. Further, the “ΔTm (ligand-dependent changes in the melting temperature of CYP3A4)” value on CYP3A4 [4] is −0.2 °C. The “442 nm absorption of the ferrous ligand-bound form of CYP3A4” value on CYP3A4 [5] is on record as “considerably smaller”. At CYP3A4 [2] (setting [9]), the IC50 stood at 75 µM.
With `NCCCCCC(=O)NCc1cccnc1` [Compound 5], the “rate constants of monophasic binding reaction” value on CYP3A4 [3] was 0.5 to 0.8 s⁻¹. Moreover, the IC50 was 1000 to 4000 µM at CYP3A4 [6] and 1000 ± 150 µM at CYP3A4 [2] (setting [9]). On CYP3A4 [7], the “442 nm absorption of the ferrous ligand-bound form of CYP3A4” value is recorded as “undetectable”. Further, the Kd turned out to be 4400 µM on CYP3A4 [1] (two binding sites, read-out: KS, second of two binding sites) and 10 µM on CYP3A4 [1] (values derived from the two site saturation fit to a titration curve, two binding sites, read-out: Ks (spectral dissociation constant), two site saturation fit). Besides, at CYP3A4 [4], the “ΔTm (ligand-dependent changes in the melting temperature of CYP3A4)” value is −0.2 °C.
Take `CC(C)(C)OC(=O)N[C@H](CSCCC(=O)NCc1cccnc1)CC1CCCCC1` [Compound 11]: the “kfast” value on CYP3A4 [3] was 4.0 ± 0.2 s⁻¹. For the same compound, the Kd at CYP3A4 [1] (setting [8]) amounted to 10 ± 1 µM. In addition, the “ΔTm (ligand-dependent changes in the melting temperature of CYP3A4)” value at CYP3A4 [4] was −2 ± 0.4 °C. Further, the “442 nm absorption of the ferrous ligand-bound form of CYP3A4” value at CYP3A4 [5] is “considerably smaller”. At CYP3A4 [2] (setting [9]), the IC50 is 30 µM.
As to `CC(C)(C)OC(=O)N[C@H](CSCCC(=O)NCc1cccnc1)Cc1ccccc1` [Compound 15a], the “kfast” value on CYP3A4 [3] is 1.7 s⁻¹ and 1.7 ± 0.2 s⁻¹. For the same compound, on CYP3A4 [1] (setting [8]), the Kd worked out at 0.9 ± 0.1 µM. Also, on CYP3A4 [4], the “ΔTm (ligand-dependent changes in the melting temperature of CYP3A4)” value was −1 ± 0.2 °C. The “442 nm absorption of the ferrous ligand-bound form of CYP3A4” value on CYP3A4 [5] is on record as “pronounced”. Also, the IC50 on CYP3A4 [2] (setting [9]) is 0.5 µM and 0.52 µM.
As to `CC(C)(C)OC(=O)N[C@H](CSCCC(=O)NCc1cccnc1)Cc1c[nH]c2ccccc12` [Compound 15b], the “kfast” value on CYP3A4 [3] is 8.0 ± 1.5 s⁻¹. In addition, on CYP3A4 [1] (setting [8]), the Kd worked out at 0.5 ± 0.1 µM. Besides, on CYP3A4 [4], the “change of CYP3A4 Tm / thermal stability upon complex formation” value is “slightly increased” and the “ΔTm (ligand-dependent changes in the melting temperature of CYP3A4)” value came to 0.2 °C. Moreover, the “442 nm absorption of the ferrous ligand-bound form of CYP3A4” value at CYP3A4 [5] is reported as “pronounced”. Also, on CYP3A4 [2] (setting [9]), the IC50 was 0.2 µM and 0.21 µM.
As to `NCCc1ccccn1` [aminoethylpyridine, reference compound], the “kfast” value on CYP3A4 [3] amounted to 0.6 ± 0.1 s⁻¹. Also, the Kd on CYP3A4 [1] (setting [8]) came to 2500 ± 200 µM. Further, the “ΔTm (ligand-dependent changes in the melting temperature of CYP3A4)” value on CYP3A4 [4] was −0.1 °C. Besides, at CYP3A4 [5], the “442 nm absorption of the ferrous ligand-bound form of CYP3A4” value is given as “undetectable”. Besides, the IC50 at CYP3A4 [2] (setting [9]) turned out to be 5000 ± 600 µM.
Regarding `c1ccncc1` [pyridine, reference compound], at CYP3A4 [3], the “kfast” value came to 0.5 ± 0.1 s⁻¹. The Kd on CYP3A4 [1] (setting [8]) is 4500 ± 400 µM. In addition, the “ΔTm (ligand-dependent changes in the melting temperature of CYP3A4)” value at CYP3A4 [4] was 0 °C. Besides, the “442 nm absorption of the ferrous ligand-bound form of CYP3A4” value on CYP3A4 [5] is “undetectable”. The IC50 at CYP3A4 [2] (IC50 (concentration required for half-maximal inactivation of recombinant CYP3A4), BFC 50 μM, 100 μM NADPH, room temperature, pH 7.4) was 4000 ± 500 µM; at CYP3A4 [2] (IC50 on the BFC debenzylation activity of CYP3A4, one range given for pyridine, aminoethylpyridine and 5 together), 1000 to 4000 µM.
